“Also recorded” adds a separate entry of the source.
How the values were obtained:
[1] = system: MCF-7 human breast carcinoma cells; experiment: Chromosome condensation / prometaphase arrest; assay type: cell-based; conditions: 1 μM for 24 h
HeLa cells = experiment: Cellular microtubule networks; assay type: cell-based, human; conditions: 10 μM for 1 h
[2] = system: MDA MB-231 and MCF-7 cells; experiment: Nuclear morphology of breast carcinoma cells; assay type: cell-based, human; conditions: 1 μ for 48 h
[3] = system: TNF-α mRNA in murine macrophage PU5-1.8 cell line; experiment: TNF-α mRNA in LPS-stimulated macrophages (Northern blot); assay type: cell-based
Method: The murine macrophage PU5-1.8 cell line was purchased from the American Type Culture Collection (ATCC, Rockville, Md.). Cells were grown in DMEM medium supplemented with […], 0.1 mM nonessential amino acids, 2 mM glutamine and 5% fetal bovine serum (Life Technologies, Staten Island, N.Y.). Cells were maintained in a humidified atmosphere of 5% CO2-95% air at 37° C. Cells were passages twice weekly by firmly tapping the side of the flask to dislodge the adherent cells. Both nonadherent and adherent cells were passages. Exponentially growing cells were seeded at 5×10 ^5/mL, 4mL per 60-mm dish 24 h prior to the experiment. Test compounds were delivered in 1 mL volumes of the medium added to each dish at the start of the experiment. All dishes were incubated at 37° C. in 5% CO2-95% air for 3 h.
Total RNA was isolated by the guanidinium-cesium chloride method as described in N. S. Waleh, J. Gallo, T. D. Grant, B. J. Murphy, R. H. Kramer and R. M. Sutherland. (1994) “Selective downregulation of integrin receptors in spheroids of squamous cell carcinoma” Cancer Res., 54:838-843. Five to 10 μg of total RNA was electrophoresed in 1% agarose gels containing 6% formaldehyde. Following electrophoresis, gels were stained with ethidium bromide to visualize the positions of 28S and 18S RNA. The RNAs were then transferred to nylon membranes (Amersham Hybond N) by capillary blotting and fixed to the filter by exposure to UV light. The blots were probed with ^32P-labeled cDNA sequences of human TNF-α obtained from the American Type Culture Collection (ATCC). The TNF-α cDNA was a 1.1 kb PstI fragment of plasmid pE4 in E. coli MM294 (ATCC 39894). Hybridizations were carried out at 42° C. in 50% formamide, 5×SSC, 5×Denhardt's solution, 0.1% SDS, and 0.3 mg/mL salmon sperm DNA. Filters were washed by 1×SSC, 0.1% SDS, twice at room temperature for 15 min and once at 55° C. in 0.1×SSC, 0.1% SDS for 1 hr. Filters were exposed to X-ray film at −70° C. using an intensifying screen (Coronex Hi-Plus).
Hybridized bands were quantified by analyzing the images obtained by using a video densitometer (Applied Imaging Corporation, Santa Clara, Calif.). Film densities were calibrated using an optical-density wedge.

[4] = system: R3230Ac rat mammary carcinoma; experiment: Dorsal skin-fold window chamber assay; assay type: in vivo, Fischer 344 rats
Description: Details of the design and the surgical technique used for the rat dorsal skin-fold window chamber assay have been described elsewhere (Pappenfuss et al., Microvasc. Res. 18:311-318 (1979)). Briefly, the anatomical midline of the dorsal skin flap of an anesthetized rat was sutured to a pair of C-clamps and a skin-fold was retracted from the body surface by hanging the C-clamp on a stage. A circle of 1 cm of skin on each side of the skin-fold was surgically removed leaving two layers of fascia containing a few microvessels. After a pair of window frames was mounted, a piece of a R3230Ac rat mammary carcinoma (about 0.5 mm^3) from a donor rat was implanted onto the fascia in the window and the chamber was sealed with glass cover slips. On the fourth postoperative day, all tumor-containing windows were evaluated using an intravital microscope. The viability of the tumor implants, vasculature morphology, and blood flow in each window were crudely scored with 1-3 points assigned to each category. Only those windows with more than 6 points on this scale were included for further study. […] Tumor-window-bearing animals were randomly divided into treated and control groups that were stratified by the window scores. […] On day 12, the tumor windows were evaluated for the effect of the drug on tumor growth and vascularization. Images of whole tumors and tumor vasculature were obtained from four peripheral tumor areas, three to four central tumor areas, and from four areas in the surrounding granulating tissue, as described above. Again, measurements of various image parameters were made by an investigator who was unaware of the treatment protocol. Using the image analysis software, the cumulative length of all vessels in focus in each image was measured. Vascular length densities were calculated by dividing the total vessel length in a frame by the area of the frame. The diameters of all vessels in each image at high magnification were also measured and averaged.
All data were reported as means +/− the SEM for each group. The statistical significance of differences between treated and control groups was determined by using an unpaired t-test or the Mann-Whitney U-test. Statistically significant differences were defined as having a p<0.05.

[5] = oral, postoperative days 5 to 11, no significant difference to controls

COC(=O)c1cc(I)c(Oc2ccc(OC)cc2)c(I)c1 [BTO-956, methyl-3,5-diiodo-4-(4′-methoxyphenoxy)benzoate]
chromosome condensation (prometaphase arrest) [1]: A large fraction of these cells showed chromosome condensation characteristic of a prometaphase arrest
cellular microtubule networks (HeLa cells): aberrant microtubule networks
nuclear morphology [2]: a significant number had condensed or fragmented nuclei
inhibition of TNF-α mRNA accumulation ([3]; 10 μM added to LPS (100 ng/mL) treated cultures, 3 h): 61%
effect on TNF-α mRNA expression, compound only ([3]; 10 μM, without LPS, 3 h): no effect
total RNA integrity ([3]; cells treated with different concentrations): intact
amounts of TNF-α mRNA, concentration-effect relationship ([3]; various concentrations with LPS for 3 h): declined with the increasing concentrations
reduction of tumor areas compared with controls ([4]; oral, postoperative days 5 to 11): more than 50%
vascular diameter in central tumor areas [4, 5]: 35.84±9.63 μm
vascular diameter in peripheral tumor areas [4, 5]: 32.19±4.46 μm
vascular diameter in surrounding areas [4, 5]: 21.52±3.33 μm
vascular length density in central tumor areas [4, 5]: 3.26±0.81 mm/mm^2
vascular length density in surrounding granulating tissue [4, 5]: 8.71±1.05 mm/^2
body weight loss or behavioral changes / toxic effects ([4]; tumor-bearing rats, oral 500 mg/kg, up to seven days, 500 mg/kg): No significant body weight loss or behavioral changes; also recorded: No serious toxic effects
